Results taken from US20040106545A1, “Compounds and methods for modulating cell adhesion” (priority 1996, published 2004).
Values joined by “and” are separate entries in the source; they are usually repeats but may differ in a detail not shown here. Equal entries are not always repeated.

Key:
[1] = Cytotoxicity, MTT assay, WI-38; assay type: cell-based; conditions: human, WI-38 fibroblast cell line, read-out: WI-38 Cytotox (IC50)
Protocol: (§1) N—Ac-CHAVC-NH2 (SEQ ID NO:10) and the control peptide N—Ac-CHGVC-NH2 (SEQ ID NO:11) were evaluated for possible cytotoxic effects on human microvascular endothelial (HMVEC; Clonetics), human umbilical vein endothelial (HUVEC; ATCC #CRL-1730), IAFp2 (human fibroblast cell line; Institute Armand-Frapier, Montreal, Quebec), WI-38 (human fibroblast cell line; ATCC #CCL-75), MDA-MB231 (human breast cancer cell line; ATCC #HTB-26), and PC-3 (human prostate cancer cell line; ATCC #CRL-1435) cells utilizing the MTT assay (Plumb et al., Cancer Res. 49:4435-4440, 1989). Neither of the peptides was cytotoxic at concentrations up to and including 100 μM. Similarly, neither of the peptides was capable of inhibiting the proliferation of the above cell lines at concentrations up to 100 μM, as judged by ^3H-thymidine incorporation assays.

[2] = Cytotoxicity, MTT assay, HMVEC; assay type: cell-based; conditions: human, HMVEC (human microvascular endothelial cells), read-out: HMVEC Cytotox (IC50)
Protocol: as §1

human skin = test: Human skin permeability, Franz Cell apparatus
Protocol: Another cell adhesion assay involves evaluating the effect of a modulating agent on permeability of adherent epithelial and/or endothelial cell layers. For example, the effect on permeability of human skin may be evaluated. Such skin may be derived from a natural source or may be synthetic. Human abdominal skin for use in such assays may generally be obtained from humans at autopsy within 24 hours of death. Briefly, a cyclic peptide and a test marker (e.g., the fluorescent markers Oregon Green™ and Rhodamine Green™ Dextran) may be dissolved in a sterile buffer, and the ability of the marker to penetrate through the skin and into a receptor fluid may be measured using a Franz Cell apparatus (Franz, Curr. Prob. Dermatol. 7:58-68, 1978; Franz, J. Invest. Dermatol. 64:190-195, 1975). In general, a modulating agent that enhances the permeability of human skin results in a statistically significant increase in the amount of marker in the receptor compartment after 6-48 hours in the presence of 500 μg/mL modulating agent. This assay evaluates the effect of a modulating agent on E-cadherin mediated cell adhesion.
Abdominal skin from humans at autopsy within 24 hours of death was used in these assays. The effect of N—Ac-CHAVC-NH2 (SEQ ID NO:10) and N—Ac-CHGVC-NH2 (SEQ ID NO:11), used at a concentration of 500 μg/ml or 2.5 mg/ml, on the penetration of two fluorescent markers, Oregon Green 488 (charge −1, MW 386 daltons) and Rhodamine Green 3000 Dextran (no charge, MW 3000 daltons) through human skin was then evaluated utilizing a Franz Cell apparatus (Franz, Curr. Prob. Dermatol. 7:58-68, 1978; Franz, J. Invest. Dermatol. 64:190-195, 1975). The peptides and markers were dissolved in sterile phosphate buffer, pH 7.2, and phosphate buffer was used as the receptor fluid. 150 μl of solution containing 0.2 mg Oregon Green and 1.0 mg Rhodamine Green was used to evaluate 500 μg/ml peptide; 200 μl of solution containing 0.05 mg Oregon Green and 1.250 mg Rhodamine Green was used to evaluate 2.5 mg/ml peptide. The solution was placed on top of the epidermal side of the skin, and the penetration of the markers through the skin was assessed using a fluorescent spectrophotometric method (in a Perkin Elmer 650-105 Fluorescence Spectrophotometer, and comparing the reading to a standard curve) at 6, 12, 24, 36, and 48 hours after the start of the experiment. The fluorescent units were converted to a concentration unit of microgram/5 ml (volume of the receiver compartment) using a standard curve and regression analysis equations. The curve was linear for the concentrations tested for both markers (r^2=1 for OrG and 0.997 for RhG). For each peptide and marker combination, the experiment was performed in triplicate.

[3] = 500 μg/ml Peptide, t = 6 hours, Mean
[4] = 500 μg/ml Peptide, t = 6 hours, single replicates, listed as Sample#1
[5] = 500 μg/ml Peptide, t = 12 hours, Mean
[6] = 500 μg/ml Peptide, t = 12 hours, single replicates, listed as Sample#1
[7] = 500 μg/ml Peptide, t = 24 hours, Mean
[8] = 500 μg/ml Peptide, t = 24 hours, single replicates, listed as Sample#1
[9] = 500 μg/ml Peptide, t = 36 hours, Mean
[10] = 500 μg/ml Peptide, t = 36 hours, single replicates, listed as Sample#1
[11] = 500 μg/ml Peptide, t = 48 hours, Mean
[12] = 500 μg/ml Peptide, t = 48 hours, single replicates, listed as Sample#1
[13] = 2.5 mg/ml Peptide, t = 6 hours, Mean
[14] = 2.5 mg/ml Peptide, t = 6 hours, single replicates, listed as Sample#1
[15] = 2.5 mg/ml Peptide, t = 12 hours, Mean
[16] = 2.5 mg/ml Peptide, t = 12 hours, single replicates, listed as Sample#1
[17] = 2.5 mg/ml Peptide, t = 24 hours, Mean
[18] = 2.5 mg/ml Peptide, t = 24 hours, single replicates, listed as Sample#1
[19] = 2.5 mg/ml Peptide, t = 36 hours, Mean
[20] = 2.5 mg/ml Peptide, t = 36 hours, single replicates, listed as Sample#1
[21] = 2.5 mg/ml Peptide, t = 48 hours, Mean
[22] = 2.5 mg/ml Peptide, t = 48 hours, single replicates, listed as Sample#1

SMILES: CC(=O)N[C@H]1CSSC[C@@H](C(N)=O)NC(=O)[C@H](C(C)C)NC(=O)[C@H](C)NC(=O)[C@H](Cc2c[nH]cn2)NC1=O [N—Ac—CHAVC—NH2, N-Ac-Cys-His-Ala-Val-Cys-NH2]
- IC50 [1]: > 100 µM
- IC50 [2]: > 100 µM
- penetration of Oregon Green through the skin, compared to control peptide (human skin; 500 μg/ml): slightly increased the penetration of Oregon Green through the skin
- penetration of Rhodamine Green through the skin, compared to control peptide (human skin; 500 μg/ml): significantly increased
- Percutaneous absorption concentration for Dextran Rhodamine Green 3000 (human skin; [3]): 0.8 mg/5ml
- Percutaneous absorption concentration for Oregon Green 488 (human skin; [3]): 0.084 mg/5ml
- Percutaneous absorption concentration for Dextran Rhodamine Green 3000 (human skin; [4]): 0.4 mg/5ml and 0.8 mg/5ml and 1.2 mg/5ml
- Percutaneous absorption concentration for Oregon Green 488 (human skin; [4]): 0.028 mg/5ml and 0.167 mg/5ml and 0.058 mg/5ml
- Percutaneous absorption concentration for Dextran Rhodamine Green 3000 (human skin; [5]): 3.52 mg/5ml
- Percutaneous absorption concentration for Oregon Green 488 (human skin; [5]): 0.225 mg/5ml
- Percutaneous absorption concentration for Dextran Rhodamine Green 3000 (human skin; [6]): 3.0 mg/5ml and 2.0 mg/5ml and 5.556 mg/5ml
- Percutaneous absorption concentration for Oregon Green 488 (human skin; [6]): 0.096 mg/5ml and 0.322 mg/5ml and 0.352 mg/5ml
- Percutaneous absorption concentration for Dextran Rhodamine Green 3000 (human skin; [7]): 11.15 mg/5ml
- Percutaneous absorption concentration for Oregon Green 488 (human skin; [7]): 0.780 mg/5ml
- Percutaneous absorption concentration for Dextran Rhodamine Green 3000 (human skin; [8]): 16.174 mg/5ml and 4.074 mg/5ml and 13.158 mg/5ml
- Percutaneous absorption concentration for Oregon Green 488 (human skin; [8]): 0.470 mg/5ml and 1.096 mg/5ml and 0.773 mg/5ml
- Percutaneous absorption concentration for Dextran Rhodamine Green 3000 (human skin; [9]): 14.72 mg/5ml
- Percutaneous absorption concentration for Oregon Green 488 (human skin; [9]): 1.00 mg/5ml
- Percutaneous absorption concentration for Dextran Rhodamine Green 3000 (human skin; [10]): 21.044 mg/5ml and 5.556 mg/5ml and 17.565 mg/5ml
- Percutaneous absorption concentration for Oregon Green 488 (human skin; [10]): 0.544 mg/5ml and 1.56 mg/5ml and 0.902 mg/5ml
- Percutaneous absorption concentration for Dextran Rhodamine Green 3000 (human skin; [11]): 20.02 mg/5ml
- Percutaneous absorption concentration for Oregon Green 488 (human skin; [11]): 1.120 mg/5ml
- Percutaneous absorption concentration for Dextran Rhodamine Green 3000 (human skin; [12]): 25.747 mg/5ml and 6.481 mg/5ml and 27.826 mg/5ml
- Percutaneous absorption concentration for Oregon Green 488 (human skin; [12]): 0.665 mg/5ml and 1.725 mg/5ml and 0.971 mg/5ml
- penetration of Oregon Green through the skin, compared to control peptide (human skin; 2.5 mg/ml): increased the penetration of Oregon Green through the skin
- penetration of Rhodamine Green through the skin, compared to control peptide (human skin; 2.5 mg/ml): significantly increased
- Percutaneous absorption concentration for Dextran Rhodamine Green 3000 (human skin; [13]): 12.66 mg/5ml
- Percutaneous absorption concentration for Oregon Green 488 (human skin; [13]): 0.14 mg/5ml
- Percutaneous absorption concentration for Dextran Rhodamine Green 3000 (human skin; [14]): 24.52 mg/5ml and 2.4 mg/5ml and 11.05 mg/5ml
- Percutaneous absorption concentration for Oregon Green 488 (human skin; [14]): 0.14 mg/5ml and 0.11 mg/5ml and 0.16 mg/5ml
- Percutaneous absorption concentration for Dextran Rhodamine Green 3000 (human skin; [15]): 31.47 mg/5ml
- Percutaneous absorption concentration for Oregon Green 488 (human skin; [15]): 0.40 mg/5ml
- Percutaneous absorption concentration for Dextran Rhodamine Green 3000 (human skin; [16]): 45.35 mg/5ml and 25.22 mg/5ml and 23.83 mg/5ml
- Percutaneous absorption concentration for Oregon Green 488 (human skin; [16]): 0.44 mg/5ml and 0.32 mg/5ml and 0.45 mg/5ml
- Percutaneous absorption concentration for Dextran Rhodamine Green 3000 (human skin; [17]): 48.78 mg/5ml
- Percutaneous absorption concentration for Oregon Green 488 (human skin; [17]): 0.54 mg/5ml
- Percutaneous absorption concentration for Dextran Rhodamine Green 3000 (human skin; [18]): 66.28 mg/5ml and 35.22 mg/5ml and 44.85 mg/5ml
- Percutaneous absorption concentration for Oregon Green 488 (human skin; [18]): 0.67 mg/5ml and 0.33 mg/5ml and 0.63 mg/5ml
- Percutaneous absorption concentration for Dextran Rhodamine Green 3000 (human skin; [19]): 71.28 mg/5ml
- Percutaneous absorption concentration for Oregon Green 488 (human skin; [19]): 0.88 mg/5ml
- Percutaneous absorption concentration for Dextran Rhodamine Green 3000 (human skin; [20]): 120.0 mg/5ml and 42.36 mg/5ml and 51.50 mg/5ml
- Percutaneous absorption concentration for Oregon Green 488 (human skin; [20]): 0.76 mg/5ml and 0.88 mg/5ml and 0.99 mg/5ml
- Percutaneous absorption concentration for Dextran Rhodamine Green 3000 (human skin; [21]): 133.56 mg/5ml
- Percutaneous absorption concentration for Oregon Green 488 (human skin; [21]): 0.82 mg/5ml
- Percutaneous absorption concentration for Dextran Rhodamine Green 3000 (human skin; [22]): 146.79 mg/5ml and 47.00 mg/5ml and 60.1 mg/5ml
- Percutaneous absorption concentration for Oregon Green 488 (human skin; [22]): 0.83 mg/5ml and 0.56 mg/5ml and 1.06 mg/5ml
